Data: US10414718B2, “Dezocine analogue” (priority 2016, dated 2019)
Like-named read-outs stand apart in the source and are kept apart here.

Key:
[1] = Pharmacokinetics of intramuscular injection of Compound 21 and prodrug thereof in rats; conditions: SD, in vivo, im, rat
From the text: 3. Pharmacokinetics of Intramuscular Injection of Compound 21 and Prodrug Thereof in Rats
Mixing the test compound with an appropriate amount of sesame oil, followed by vortex and sonicate, to prepare and obtain 25 μmol/mL homogeneous suspension. […] Collecting whole blood in certain time, adding precipitant (acetonitrile, methanol and analytical internal standard) and centrifugating.

[2] = Pharmacokinetic study of intravenous injection in rats; conditions: SD, rat, plasma, 1 mg/kg
From the text: Through the in vivo drug metabolism test in rats, values such as Cmax, t1/2, AUC, MRT and B/P ratio of the compound in vivo were used as indicators to evaluate the metabolism of the compound in rats.
1. Pharmacokinetic Study of Intravenous Injection of Dezocine and Analogues Thereof in Rats
Mixing the test compound with an appropriate amount of physiological saline solution of 20% polyethylene glycol 400, followed by vortex and sonicate, and adjusting the pH to 4-5 with hydrochloric acid to obtain 5 mg/mL approximately clear solution, filtering the solution by microporous filtering film to be used. Selecting 6 to 9 weeks old SD rats (Shanghai Sleek Laboratory Animal Co., Ltd.) and intravenously injecting the test compound solution at a dose of 1 mg/kg. Collecting whole blood in certain time to prepare and obtain plasma. Analyzing drug concentrations by LC-MS/MS method and calculating pharmacokinetic parameters using Phoenix WinNonlin software (Pharsight, USA).

μ opioid receptor = molecular target: T1, μ opioid receptor (Homo sapiens, UniProt P35372); assay: FLIPR intracellular calcium signal test, HEK293-μ cells; format: cell-based; conditions: for EC50: EC50 (activation) test, read-out: Mu receptor EC50; for IC50: IC50 (inhibition) test against EC80 of positive agonist, read-out: Mu receptor IC50
T1 construct: expressed in transfected cells
T1 sequence (P35372 whole entry): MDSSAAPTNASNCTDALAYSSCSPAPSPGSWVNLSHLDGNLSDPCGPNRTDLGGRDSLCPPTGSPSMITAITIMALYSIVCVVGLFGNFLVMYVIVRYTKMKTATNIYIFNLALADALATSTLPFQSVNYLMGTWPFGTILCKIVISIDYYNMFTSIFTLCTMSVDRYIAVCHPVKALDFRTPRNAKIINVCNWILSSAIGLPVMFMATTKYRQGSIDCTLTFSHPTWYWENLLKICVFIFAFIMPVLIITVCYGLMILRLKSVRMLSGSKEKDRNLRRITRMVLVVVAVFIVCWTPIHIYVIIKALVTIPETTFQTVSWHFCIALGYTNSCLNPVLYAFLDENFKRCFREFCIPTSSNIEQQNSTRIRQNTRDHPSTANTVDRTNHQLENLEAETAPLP
Description: (§1) Fluorescence imaging plate reader FLIPR was used to detect changes of intracellular calcium signals. EC50 and IC50 values of the compounds were used as indicators to evaluate the activation or inhibition of the compounds on μ, κ, and δ opioid receptors.
(§2) Cell lines: HEK293-μ, HEK293-κ and HEK293-δ, stable-transfected cell lines HEK293-μ, HEK293-κ and HEK293-δ; Cell culture media (DMEM, Invitrogen #11965118, 10% fetal bovine serum Invitrogen #10099141, Geneticin Selective Antibiotic (G418) 300 μg/mL, Invitrogen #10131027, Blasticidin-S HCL 2 ug/mL Invitrogen #A1113902)
(§3) 1. Cell Seeding (HEK293-μ, HEK293-κ and HEK293-δ Cells)
(§4) 1) Preheating medium, pancreatic enzyme, and DPBS in a 37° C. water bath. Aspirating the culture medium from the cell culture flask and washing it with 10 mL DPBS;
(§5) 2) Adding the preheated pancreatic enzyme solution to the cell culture flask, rotating the flask slightly to make the pancreatic enzymes evenly cover the cell surface of the flask, and then putting it into a 37° C., 5% CO2 incubator to digest for 1-2 minutes;
(§6) 3) Suspending the cells with 10-15 mL culture medium in each T150 cm^2 cell culture flask, centrifugating at 800 rpm for 5 minutes, and resuspending the cells with 10 mL culture medium, aspirating 1 mL cell resuspension to be counted with Vi-cell;
(§7) 4) Diluting HEK293-μ, HEK293-κ and HEK293-δ cells to 5×10^5/mL with culture medium, use multichannel pipette to add diluted cells into 384 plate (Greiner #781946) (50 μL/well, 25000 cells/well for HEK293-μ, HEK293-κ and HEK293-δ cells). Placing the cell plate in a 37° C., 5% CO2 incubator overnight.
(§8) 2. Adding Compound Samples:
(§9) 1) Diluting the compound to 20 mM with DMSO, 3 fold diluted, 8 gradients, double reduplicative wells, and adding it to the compound plate using an Echo ultrasonic liquid handler device (Echo liquid handler).
(§10) 1) Washing off the cell culture medium in 384 plate with vacuum pump, adding 20 μL Fluo-4 Direct fluorescent dye, then incubating in a 37° C., 5% CO2 incubator for 50 minutes, followed by equilibrating at room temperature for 10 minutes.
(§11) 2) EC50 test: Adding 20 uL HBSS buffer (containing 20 mM HEPES) to the compound plate, mixing well and centrifugating. Placing the cell plate and compound plate into FLIPR and reading the fluorescence value.
(§12) Calculating the EC80 value with the EC50 value of the positive agonist, preparing 4× EC80 solution, adding it to the 384 compound plate by multichannel pipette, and mixing well and centrifugating.
(§13) 4) IC50 test: In FLIPR, successively placing 4× EC80 plate, cell plate, FLIPR tip, running the program and reading the fluorescence value.
(§14) 4. Data Analyzing: Using Prism 5.0 to Analyze the Data and Calculate the EC50 and IC50 Values of the Compounds.

δ opioid receptor = molecular target: T2, δ opioid receptor (Homo sapiens, UniProt P41143); assay: FLIPR intracellular calcium signal test, HEK293-δ cells; format: cell-based; conditions: for EC50: EC50 (activation) test, read-out: Delt receptor EC50; for IC50: IC50 (inhibition) test against EC80 of positive agonist, read-out: Delt receptor IC50
T2 construct: expressed in transfected cells
T2 sequence (P41143 whole entry): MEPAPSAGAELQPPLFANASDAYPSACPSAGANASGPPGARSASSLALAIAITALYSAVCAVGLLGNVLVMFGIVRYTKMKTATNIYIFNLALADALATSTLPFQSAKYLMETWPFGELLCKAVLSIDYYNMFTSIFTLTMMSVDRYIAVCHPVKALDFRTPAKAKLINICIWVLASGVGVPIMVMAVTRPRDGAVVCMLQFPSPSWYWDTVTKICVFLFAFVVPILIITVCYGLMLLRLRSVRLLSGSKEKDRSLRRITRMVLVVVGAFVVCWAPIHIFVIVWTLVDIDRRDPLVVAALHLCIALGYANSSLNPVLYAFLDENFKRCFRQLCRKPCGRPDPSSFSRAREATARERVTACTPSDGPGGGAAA
Description: as §1, §2, §3, §4, §5, §6, §7, §8, §9, §10, §11, §12, §13, §14

[3] = Brain distribution study of intravenous injection in rats; conditions: rat, 1 mg/kg, brain tissue to plasma concentration ratio; for B/P ratio (0.25 h): 0.25 h after dosing; for B/P ratio (2 h): 2 h after dosing
Description: 2. Brain Distribution Study of Intravenous Injection of Dezocine and Analogues Thereof in Rats
Intravenously injecting the test compound solution in the same manner as example 1 at a dose of 1 mg/kg. Executing animals with carbon dioxide 15 minutes and 2 hours after dosing, collecting whole blood and brain tissue sample, centrifugating the whole blood to obtain plasma, and homogenizing the brain tissue with triple volumes of deionized water. Analyzing drug concentration of the plasma and brain homogenate samples by LC-MS/MS method, and calculating the concentration ratio of brain tissue to plasma (B/P ratio).

κ opioid receptor = molecular target: T3, κ opioid receptor (Homo sapiens, UniProt P41145); assay: FLIPR intracellular calcium signal test, HEK293-κ cells; format: cell-based; conditions: for EC50: EC50 (activation) test, read-out: Kapp receptor EC50; for IC50: IC50 (inhibition) test against EC80 of positive agonist, read-out: Kapp receptor IC50
T3 construct: expressed in transfected cells
T3 sequence (P41145 whole entry): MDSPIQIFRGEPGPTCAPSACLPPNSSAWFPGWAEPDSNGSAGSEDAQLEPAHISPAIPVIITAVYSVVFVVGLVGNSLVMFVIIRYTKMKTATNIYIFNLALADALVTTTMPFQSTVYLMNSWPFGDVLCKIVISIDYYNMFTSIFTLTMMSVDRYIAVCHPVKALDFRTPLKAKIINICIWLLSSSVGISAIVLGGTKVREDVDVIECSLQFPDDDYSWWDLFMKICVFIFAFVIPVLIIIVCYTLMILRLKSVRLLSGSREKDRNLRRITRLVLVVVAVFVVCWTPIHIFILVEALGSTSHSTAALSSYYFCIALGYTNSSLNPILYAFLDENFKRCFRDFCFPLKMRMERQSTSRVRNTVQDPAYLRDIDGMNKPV
Description: as §1, §2, §3, §4, §5, §6, §7, §8, §9, §10, §11, §12, §13, §14

SMILES | AUC(0-t) [2] [µM·h] | C0 [2] [nM] | MRT last [2] [h] | Vd [2] [L/kg] | clearance [2] [mL/min/kg] | half-life [2] [h] | EC50 (μ opioid receptor) [µM] | IC50 (μ opioid receptor) [µM] | EC50 (δ opioid receptor) [µM] | IC50 (δ opioid receptor) [µM] | B/P ratio (0.25 h) [3] | B/P ratio (2 h) [3] | EC50 (κ opioid receptor) [µM] | IC50 (κ opioid receptor) [µM] | other results
C[C@@]12CCCCC[C@@H](Cc3c(F)cc(OC(=O)CCCCC(=O)Oc4cc(F)c5c(c4)[C@@]4(C)CCCCC[C@@H](C5)[C@@H]4N)cc31)[C@@H]2N [Compound 34] | – | – | – | – | – | – | – | – | – | – | – | – | – | – | AUC(0-t) ([1]; 20 umol/kg, carboxylic diester prodrug 20 μmol/kg, analyte: prodrug itself, read-out: AUC0-last of the prodrug): 0.00295 µM·h; Cmax ([1]; 20 umol/kg, carboxylic diester prodrug 20 μmol/kg, analyte: prodrug itself, read-out: Cmax of the prodrug): 3.91 nM; MRT last ([1]; 20 umol/kg, carboxylic diester prodrug 20 μmol/kg, analyte: prodrug itself, read-out: MRT0-last of the prodrug): 0.539 h; Tmax ([1]; 20 umol/kg, carboxylic diester prodrug 20 μmol/kg, analyte: prodrug itself, read-out: Tmax of the prodrug): 0.25 h
C[C@]12CCCCC[C@@H](Cc3c(Cl)cc(O)cc31)[C@@H]2N [Compound 23] | 0.341 | 362 | 1.65 | 20.6 | 165 | 1.6 | ≤ 0.1 | ≤ 0.1 | > 100 | > 100 | 16.7 | 27.9 | > 100 | 1 to 10 | –
C[C@@]12CCCCC[C@@H](Cc3c(F)cc(O)cc31)[C@@H]2N [Compound 21] | 0.387 | 493 | 1.35 | 16.2 | 155 | 1.42 | ≤ 0.1 | ≤ 0.1 | > 100 | 1 to 10 | 13.3 | 19.8 | > 100 | 1 to 10 | half-life ([1]; 40 umol/kg, Compound 21 itself dosed at 40 μmol/kg, sesame oil suspension): 4.2 h; AUC(0-t) ([1]; 40 umol/kg, Compound 21 itself dosed at 40 μmol/kg, sesame oil suspension, read-out: AUC0-last): 3.99 µM·h; Cmax ([1]; 40 umol/kg, Compound 21 itself dosed at 40 μmol/kg, sesame oil suspension, read-out: Cmax): 1750 nM; MRT last ([1]; 40 umol/kg, Compound 21 itself dosed at 40 μmol/kg, sesame oil suspension, read-out: MRT0-last): 2.82 h; Tmax ([1]; 40 umol/kg, Compound 21 itself dosed at 40 μmol/kg, sesame oil suspension, read-out: Tmax): 0.5 h
